Measurements: EP1746087A1, “Derivates of 3-indolylmethylene having cytostatic properties” (Universitaet Regensburg, priority 2005, dated 2007)
Several values for one entry are separate records, joined by “and”; a condition that tells them apart may be missing. Equal entries are not always repeated. Where two headings read alike, the source gives them in different places. Blank lines part the entries; values can stand above or below the compound they belong to.

How the values were obtained:
Format in all cases: cell-based, menschlich
[1] = system: MDA-MB-231-Brustkrebszellen; assay: Growth inhibition of MDA-MB-231 breast cancer cells in vitro (cytostatic effect); conditions: MDA-MB-231 cells, read-out: IC50 Hemmwirkung auf das Wachstum
From the text: (§1) Die cytostatische Wirkung der erfindungsgemäßen Verbindungen wurde an zwei verschiedenen menschlichen Mammacarcinomzellinien in vitro bestimmt (M. Goldbrunner et al., J.Med.Chem. 1997,40,3525). Es handelt sich dabei um die hormonunabhängige MDA-MB-231-Zellinie und die estrogensensitive MCF-7-Linie. Die MDA-MB-231-Zellen wurden auch für die durchflusszytometrischen Analysen zur Zellzyklusverteilung herangezogen (M.J.J. Jaroszeski und R. Heller, Flow Cytometry Protocols, Humana Press, 1998, Totowa New Jersey). Besonders überraschend war, dass diese synthetischen Verbindungen häufig bereits im Konzentrationsbereich von 10 bis 100 nanomolar das Wachstum von menschlichen Tumorzellen stark hemmen, obwohl sie nur ein relativ niedriges Molekulargewicht aufweisen (MG ~ 320 - 500) (Tabelle 2 und 3, Abb. 2). Potente Therapeutika, die ebenfalls in den Zellzyklus eingreifen, besitzen Molekulargewichte im Bereich von 825 (Vincristin als Base) und 850 (Paclitaxel).

[2] = system: MCF-7-Mammacarcinomzellen; assay: Growth inhibition of MCF-7 mammary carcinoma cells in vitro (cytostatic effect); conditions: MCF-7 cells, read-out: IC50 Hemmwirkung auf das Wachstum
From the text: as §1

[3] = system: MDA-MB-231-Mammacarcinomzellen; assay: Flow-cytometric analysis of cell cycle distribution
From the text: as §1

Structure (SMILES): COc1ccc(-c2[nH]c3ccc(C)cc3c2C=C(C#N)C#N)cc1 [Verbindung 1, [2-(4-Methoxyphenyl)-5-methyl-indol-3-yl]-methylenpropandinitril]
IC50 ([1]; Homo sapiens): 280 nM | IC50 ([2]; Homo sapiens, MCF7): 200 nM | Debris % ([3]; Konz. 0.5 µM): 7.8% | G1/G0 % ([3]; Konz. 0.5 µM): 41.0% | G2/M % ([3]; Konz. 0.5 µM): 32.0% | S % ([3]; Konz. 0.5 µM): 19.2% | Debris % ([3]; Konz. 1.0 µM): 16.4% | G1/G0 % ([3]; Konz. 1.0 µM): 16.9% | G2/M % ([3]; Konz. 1.0 µM): 45.4% | S % ([3]; Konz. 1.0 µM): 21.3% | Debris % ([3]; Konz. 5.0 µM): 6.4% | G1/G0 % ([3]; Konz. 5.0 µM): 9.8% | G2/M % ([3]; Konz. 5.0 µM): 57.7% | S % ([3]; Konz. 5.0 µM): 26.1%

Structure (SMILES): CCCc1ccc2[nH]c(-c3ccc(OC)cc3)c(C=C(C#N)C#N)c2c1 [Verbindung 5, [2-(4-Methoxyphenyl)-5-n-propyl-indol-3-yl]-methylenpropandinitril]
IC50 ([1]; Homo sapiens): 83 nM

Structure (SMILES): CCCCCc1ccc2[nH]c(-c3ccc(OC)cc3)c(C=C(C#N)C#N)c2c1 [Verbindung 8, [2-(4-Methoxyphenyl)-5-n-pentyl-indol-3-yl]-methylenpropandinitril]
IC50 ([1]; Homo sapiens): 42 nM | IC50 ([2]; Homo sapiens, MCF7): 76 nM

Structure (SMILES): COc1ccc(-c2[nH]c3ccccc3c2C=C(C#N)C#N)cc1 [Verbindung 11, [2-(4-Methoxyphenyl)-indol-3-yl]-methylenpropandinitril]
IC50 ([1]; Homo sapiens): 720 nM

Structure (SMILES): COc1cccc(-c2[nH]c3ccc(OC)cc3c2C=C(C#N)C#N)c1 [Verbindung 12, [5-Methoxy-2-(3-methoxyphenyl)-indol-3-yl]-methylenpropandinitril]
IC50 ([1]; Homo sapiens): 970 nM

Structure (SMILES): CCCCCc1ccc2[nH]c(-c3ccc(C(F)(F)F)cc3)c(C=C(C#N)C#N)c2c1 [Verbindung 16, {5-Pentyl-2-[4-(trifluormethyl)-phenyl]-indol-3-yl}-methylenepropandinitril]
IC50 [1]: 78 nM

Structure (SMILES): CCCCc1ccc2[nH]c(-c3ccc(OC)cc3)c(C=C(C#N)C(=O)O)c2c1 [Verbindung 18, 3-[5-n-Butyl-2-(4-methoxyphenyl-)indol-3-yl]-2-cyanoacrylsäure]
IC50 [1]: 200 nM

Structure (SMILES): COc1ccc(-c2[nH]c3cc(OC)ccc3c2C=NNc2ccccc2)cc1 [Verbindung 21, 6-Methoxy-2-(4-methoxyphenyl)-indol-3-carbaldehyd-phenylhydrazon]
IC50 ([1]; Homo sapiens): 1000 nM

Structure (SMILES): CCCCc1ccc2[nH]c(-c3ccc(OC)cc3)c(C=NNC(=O)c3ccccc3)c2c1 [Verbindung 22, 5-n-Butyl-2-(4-methoxyphenyl)-indol-3-carbaldehyd-benzoylhydrazon]
IC50 ([1]; Homo sapiens): 32 nM | IC50 ([2]; Homo sapiens, MCF7): 130 nM

Structure (SMILES): CCCCc1ccc2[nH]c(-c3ccc(OC)cc3)c(C=NNC(=O)c3ccc(Cl)cc3)c2c1 [Verbindung 23, 5-n-Butyl-2-(4-methoxyphenyl)-indol-3-carbaldehyd-(4-chlorbenzoyl)hydrazon]
IC50 [1]: 90 nM

Structure (SMILES): CC[C@]1(O)C[C@H]2CN(CCc3c([nH]c4ccccc34)[C@@](C(=O)OC)(c3cc4c(cc3OC)N(C=O)[C@H]3[C@@](O)(C(=O)OC)[C@H](OC(C)=O)[C@]5(CC)C=CCN6CC[C@]43[C@@H]65)C2)C1 [Vincr., Vincristin, reference compound]
G1/G0 % ([3]; Konz. 0.1 µM): 6.2% and 4.5% and 5.1% and 9.3% and 10.2% and 11.4% and 8.1% | G2/M % ([3]; Konz. 0.1 µM): 67.0% and 76.0% and 60.7% and 53.8% and 61.0% and 48.4% and 54.1%

The next lines start with results.

IC50 [1]: 75 nM
Structure (SMILES): COc1ccc(-c2[nH]c3cc(Cl)c(C)cc3c2C=C(C#N)C#N)cc1 [Verbindung 2, [6-Chlor-2-(4-methoxyphenyl)-5-methyl-indol-3-yl]-methylenpropandinitril]
IC50 [2]: 200 nM

IC50 ([1]; Homo sapiens): 180 nM
Structure (SMILES): COc1ccc2c(C=C(C#N)C#N)c(-c3ccc(C)cc3)[nH]c2c1 [Verbindung 3, [6-Methoxy-2-(4-methylphenyl)-indol-3-yl]-methylenpropandinitril]
IC50 ([2]; Homo sapiens, MCF7): 250 nM

IC50 [1]: 400 nM
Structure (SMILES): COc1ccc(-c2[nH]c3ccc(F)cc3c2C=C(C#N)C#N)cc1 [Verbindung 4, [5-Fluor-2-(4-methoxyphenyl)-indol-3-yl]methylenpropandinitril]

IC50 ([1]; Homo sapiens): 210 nM
Structure (SMILES): COc1ccc(-c2[nH]c3cc(C(C)C)ccc3c2C=C(C#N)C#N)cc1 [Verbindung 6, [6-Isopropyl-2-(4-methoxyphenyl)-indol-3-yl]methylenpropandinitril]
IC50 ([2]; Homo sapiens, MCF7): 310 nM

IC50 ([1]; Homo sapiens): 13 nM
Structure (SMILES): CCCCc1ccc2[nH]c(-c3ccc(OC)cc3)c(C=C(C#N)C#N)c2c1 [Verbindung 7, [5-n-Butyl-2-(4-methoxyphenyl)-indol-3-yl]-methylenpropandinitril]
IC50 ([2]; Homo sapiens, MCF7): 13 nM

IC50 ([1]; Homo sapiens): 260 nM
Structure (SMILES): COc1ccc(-c2[nH]c3cc(OC)ccc3c2C=C(C#N)C#N)cc1 [Verbindung 10, [6-Methoxy-2-(4-methoxyphenyl)-indol-3-yl]methylenpropandinitril]

IC50 [1]: 56 nM
Structure (SMILES): CCCCc1ccc2[nH]c(-c3ccc(C(F)(F)F)cc3)c(C=C(C#N)C#N)c2c1 [Verbindung 13, {5-Butyl-2-[4-(trifluormethyl)-phenyl]-indol-3-yl}methylenpropandinitril]
Debris % ([3]; Konz. 0.01 µM): 2.9% | G1/G0 % ([3]; Konz. 0.01 µM): 52.7% | G2/M % ([3]; Konz. 0.01 µM): 22.1% | S % ([3]; Konz. 0.01 µM): 22.9% | Debris % ([3]; Konz. 0.05 µM): 3.0% | G1/G0 % ([3]; Konz. 0.05 µM): 52.3% | G2/M % ([3]; Konz. 0.05 µM): 22.1% | S % ([3]; Konz. 0.05 µM): 22.6% | Debris % ([3]; Konz. 0.1 µM): 13.3% | G1/G0 % ([3]; Konz. 0.1 µM): 52.6% | G2/M % ([3]; Konz. 0.1 µM): 12.2% | S % ([3]; Konz. 0.1 µM): 22.3% | Debris % ([3]; Konz. 0.5 µM): 5.5% | G1/G0 % ([3]; Konz. 0.5 µM): 5.4% | G2/M % ([3]; Konz. 0.5 µM): 76.3% | S % ([3]; Konz. 0.5 µM): 9.2%

IC50 ([1]; Homo sapiens): 65 nM
Structure (SMILES): CCCCc1ccc2[nH]c(-c3ccc(C)cc3)c(C=C(C#N)C#N)c2c1 [Verbindung 14, [5-Butyl-2-(4-methylphenyl)-indol-3-yl]-methylenpropandinitril]
Debris % ([3]; Konz. 0.05 µM): 2.5% | G1/G0 % ([3]; Konz. 0.05 µM): 52.7% | G2/M % ([3]; Konz. 0.05 µM): 22.4% | S % ([3]; Konz. 0.05 µM): 24.0% | Debris % ([3]; Konz. 0.1 µM): 3.3% | G1/G0 % ([3]; Konz. 0.1 µM): 50.6% | G2/M % ([3]; Konz. 0.1 µM): 21.9% | S % ([3]; Konz. 0.1 µM): 24.6% | Debris % ([3]; Konz. 0.5 µM): 24.5% | G1/G0 % ([3]; Konz. 0.5 µM): 16.7% | G2/M % ([3]; Konz. 0.5 µM): 41.5% | S % ([3]; Konz. 0.5 µM): 15.6% | Debris % ([3]; Konz. 1.0 µM): 19.1% | G1/G0 % ([3]; Konz. 1.0 µM): 6.1% | G2/M % ([3]; Konz. 1.0 µM): 64.2% | S % ([3]; Konz. 1.0 µM): 10.3%

IC50 ([1]; Homo sapiens): 79 nM
Structure (SMILES): CCCCc1ccc2[nH]c(-c3ccc(CC)cc3)c(C=C(C#N)C#N)c2c1 [Verbindung 15, [5-Butyl-2-(4-ethylphenyl)-indol-3-yl]-methylenpropandinitril]
Debris % ([3]; Konz. 0.01 µM): 5.0% | G1/G0 % ([3]; Konz. 0.01 µM): 53.6% | G2/M % ([3]; Konz. 0.01 µM): 21.8% | S % ([3]; Konz. 0.01 µM): 20.0% | Debris % ([3]; Konz. 0.05 µM): 6.6% | G1/G0 % ([3]; Konz. 0.05 µM): 50.3% | G2/M % ([3]; Konz. 0.05 µM): 19.8% | S % ([3]; Konz. 0.05 µM): 24.2% | Debris % ([3]; Konz. 0.1 µM): 8.6% | G1/G0 % ([3]; Konz. 0.1 µM): 51.8% | G2/M % ([3]; Konz. 0.1 µM): 18.9% | S % ([3]; Konz. 0.1 µM): 20.7% | Debris % ([3]; Konz. 0.5 µM): 23.2% | G1/G0 % ([3]; Konz. 0.5 µM): 5.7% | G2/M % ([3]; Konz. 0.5 µM): 62.8% | S % ([3]; Konz. 0.5 µM): 6.3%

IC50 [1]: 150 nM
Structure (SMILES): CCCCCCc1ccc2[nH]c(-c3ccc(C(F)(F)F)cc3)c(C=C(C#N)C#N)c2c1 [Verbindung 17, {5-Hexyl-2-[4-(trifluormethyl)phenyl]-indol-3yl}-methylenpropandinitril]

IC50 ([1]; Homo sapiens): 53 nM
Structure (SMILES): CCCCc1ccc2[nH]c(-c3ccc(CC)cc3)c(C=NNCc3cccnc3)c2c1 [Verbindung 26, 5-Butyl-2-(4-ethylphenyl)-indol-3-carbaldehyd-nicotinylhydrazon]
Debris % ([3]; Konz. 0.01 µM): 3.2% | G1/G0 % ([3]; Konz. 0.01 µM): 51.0% | G2/M % ([3]; Konz. 0.01 µM): 26.3% | S % ([3]; Konz. 0.01 µM): 20.2% | Debris % ([3]; Konz. 0.05 µM): 2.8% | G1/G0 % ([3]; Konz. 0.05 µM): 51.3% | G2/M % ([3]; Konz. 0.05 µM): 22.9% | S % ([3]; Konz. 0.05 µM): 23.7% | Debris % ([3]; Konz. 0.1 µM): 3.4% | G1/G0 % ([3]; Konz. 0.1 µM): 49.2% | G2/M % ([3]; Konz. 0.1 µM): 25.5% | S % ([3]; Konz. 0.1 µM): 23.0% | Debris % ([3]; Konz. 0.5 µM): 12.2% | G1/G0 % ([3]; Konz. 0.5 µM): 9.6% | G2/M % ([3]; Konz. 0.5 µM): 66.9% | S % ([3]; Konz. 0.5 µM): 11.4%

IC50 [1]: 260 nM
Structure (SMILES): CCCCc1ccc2[nH]c(-c3ccc(C(F)(F)F)cc3)c(C=NNC(=O)c3ccccn3)c2c1 [Verbindung 27, 5-n-Butyl-2-[4-(trifluormethyl)-phenyl]-indol-3-carbaldehyd-picolinylhydrazon]

IC50 [1]: 94 nM
Structure (SMILES): CCCCc1ccc2[nH]c(-c3ccc(C(F)(F)F)cc3)c(C=NNC(=O)c3ccncc3)c2c1 [Verbindung 28, 5-Butyl-2-[4-(trifluormethyl)-phenyl]-indol-3-carbaldehyd-isonicotinylhydrazon]
Debris % ([3]; Konz. 0.05 µM): 3.5% | G1/G0 % ([3]; Konz. 0.05 µM): 49.6% | G2/M % ([3]; Konz. 0.05 µM): 24.2% | S % ([3]; Konz. 0.05 µM): 25.6% | Debris % ([3]; Konz. 0.1 µM): 3.8% | G1/G0 % ([3]; Konz. 0.1 µM): 49.3% | G2/M % ([3]; Konz. 0.1 µM): 24.0% | S % ([3]; Konz. 0.1 µM): 23.7% | Debris % ([3]; Konz. 0.5 µM): 16.7% | G1/G0 % ([3]; Konz. 0.5 µM): 16.9% | G2/M % ([3]; Konz. 0.5 µM): 50.2% | S % ([3]; Konz. 0.5 µM): 15.0%

IC50 ([1]; Homo sapiens): 30 nM
Structure (SMILES): CCCCc1ccc2[nH]c(-c3ccc(OC)cc3)c(C=NN3C(=O)c4ccccc4C3=O)c2c1 [Verbindung 29, N-{[5-n-Butyl-2(4-methoxyphenyl)-indol-3-yl]methylenamino}-phthalimid]

IC50 [1]: 850 nM
Structure (SMILES): CCCCc1ccc2[nH]c(-c3ccc(C(F)(F)F)cc3)c(C=NNC(N)=O)c2c1 [Verbindung 30, 5-Butyl-2-[4-(trifluormethyl)-phenyl]-indol-3-carbaldehyd-semicarbazon]
